From patent US7108863B2, “Liposome composition for improved intracellular delivery of a therapeutic agent” (Alza Corporation, priority 2001, dated 2006) come the findings set out here.

The test system of one assay is CD19^+ Namalwa cells. The assay can be described thus: In vitro cytotoxicity, MTT proliferation assay on Namalwa cells. The following applies: Homo sapiens, 48 hours, mean ± SD, read-out: IC50 (μM DXR). Type of assay: cell-based. The protocol: In vitro cytotoxicity of free DXR and various liposomal formulations was evaluated using Namalwa cells with an in vitro proliferation assay as described in Example 6. In addition to the targeted, pH-sensitive liposomes, conventional, non-pH sensitive sterically stabilized liposome (DXR-SL) and doxorubicin in free form were also tested. Each of the test formulations was incubated with the Namalwa cells under controlled conditions for 48 hours. At the end of the incubation time, cytotoxicity was expressed as the inhibitory concentration, that is the concentration required for a 50% inhibition of cell growth (IC50).
A comparison of the in vitro cytotoxicity of free doxorubicin and various liposomal formulations (Table 1) was performed on Namalwa cells with an in vitro proliferation assay using a tetrazolium dye (MTT -3-(4,5-dimethylthiazol-2-yl)-2,5 diphenyltetrazolim bromide; Mosmann, J. J. Immunol Methods, 65:55 (1983)), as described in Lopes de Menezes et al, Cancer Res., 58:3320 (1998).
Briefly, 5×10^5 Namalwa cells were plated in 96-well plates and incubated with either free DXR or various formulations of liposome-encapsulated doxorubicin with or without anti-CD19 mAb. […] At the end of the incubation period, tetrazolium dye was added, and the plates were read on a Titertek Multiskan Plus (Flow Laboratories, Inc. Mississauga, Ontario, Canada) at dual wavelengths of 570 and 650 nm. […]
(In general: Formazan colour is commonly taken as a measure of viable cells.)

The subject of assay [1] is CD 19± human B-lymphoma (Namalwa) cells. The assay can be described thus: Survival of SCID mice implanted i.v. with Namalwa cells. The assay is classed as in vivo. The procedure:
In another study performed in support of the invention, mice were treated with targeted, pH-sensitive liposomes having releasable PEG chains. Entrapped in the liposomes was the therapeutic agent doxorubicin (DXR). As described in Example 9, the mice were treated with a single dose of 3 mg DXR/kg in free form or entrapped in liposomes. The liposome formulations are summarized in Table 2 and detailed in Example 8.
Namalwa cells were passaged i.p. in CB-17/ICR Tac SCID mice (Charles River Laboratories, Quebec, Canada) to develop a more virulent strain with reproducible tumor take (Lopes de Menezes et al., Cancer Res., 58:3320 (1998)). Namalwa cells were harvested in sterile PBS and implanted into SCID mice. Cell viability was assessed by dye exclusion using Trypan Blue dye before and after the implantation process.
SCID mice (5 mice/group) (Charles River Laboratories), 6–8 weeks of age, were implanted with Namalwa cells i.v. (5×10^6) and treated i.v. at 24 h after implantation with a single dose of 3 mg doxorubicin/kg as either free doxorubicin, doxorubicin-SIL[anti-CD19] or targeted DXR-loaded DOPE/CHEMS formulations stabilized with either mPEG-DSPE or mPEG-S-S-DSPE. The treatment regimens were as follows:
All treatment groups received 3 mg doxorubicin/kg. Mice were monitored routinely for weight loss, and euthanized as they became moribund; survival times were recorded. […]

Another assay has as its system Namalwa cells. The assay can be described thus: Nuclear accumulation of doxorubicin in Namalwa cells. The assay is classed as cell-based, human. The settings on record: 8 μM DXR, 0-12 hours. The protocol: Nuclear accumulation of doxorubicin was determined as described in Example 7. Briefly, Namalwa cells, maintained under logarithmic growth conditions were treated with doxorubicin-entrapped liposome formulations at a doxorubicin concentration of 8 μM. At various time points (0, 2, 4, 8, 12 hours), an aliquot of the treated cells was ruptured to recover the nuclei. The DNA in the nuclei were enzymatically digested and doxorubicin fluorescence was measured.
Nuclear accumulation of doxorubicin was determined according to the method of Kirchmeier et al. (J. Liposome Res., 11:15 (2001)). Briefly, 4.5×10^8/500 ml Namalwa cells, maintained under logarithmic growth conditions in RPMI 1640 supplemented with 10% FBS, were treated with either free DXR or various liposomal DXR formulations at a DXR concentration of 8 μM.
At various time points (0, 2, 4, 8, 12 hours), 100 ml of cells was pelleted by centrifugation at 1000 rpm for 10 min and washed with 20 ml of TEA buffer. […] After removal of the supernatant, the pellet was diluted to 1 ml with TEA buffer, then vortexed and sonicated until the nuclei were evenly dispersed, as determined by visual inspection.
For each time point, three aliquots of the nuclear fractions (0.2 ml each) were placed in 1.3 ml TEA. […] Following digestion at 22° C. for 2 hours, the doxorubicin fluorescence was recorded (excitation at 480 nm and emission at 595 nm). […]

A word on the IC50: it is the concentration that gives 50% inhibition.

For the molecule `COc1cccc2c1C(=O)c1c(O)c3c(c(O)c1C2=O)C[C@@](O)(C(=O)CO)C[C@@H]3O[C@H]1C[C@H](N)[C@H](O)[C@H](C)O1` [Free DXR, doxorubicin], in the assay on CD19^+ Namalwa cells, the IC50 stood at 0.8 ± 0.7 µM. Moreover, in assay [1] (relative to mean survival time of control mice, 3 mg DXR/kg i.v.), the “Increased Life Span (% ILS)” value is 9.5%. For the same molecule, the “Mean Survival Time (MST ± S.D. (days))” value in assay [1] (single i.v. dose 3 mg DXR/kg 24 h after i.v. implantation, 5 mice/group) was 23.0 ± 1.4 days. In the assay with Namalwa cells, the “nuclear accumulation of doxorubicin (in words)” value was “fastest rate”.
